Laboratory results taken from patent EP0934745B1, “Use of androsterone derivatives for inhibiting DNA binding of ap-1 and airway smooth muscle proliferation” (CHARLOTTE-MECKLENBURG HOSPITAL doing business as Carolinas …, priority 1998, dated 1999).

Biological target: T1, glucose-6-phosphate dehydrogenase (G6PDH) (Rattus norvegicus, UniProt P05370)
T1 construct: endogenous in cells; host or cells: primary rat tracheal (airway) smooth muscle cells
Experiment: G6PDH activity after pretreatment of intact airway smooth muscle monolayers
Type: cell-based
Conditions: for G6PDH activity of subsequent cell lysates: monolayers pretreated with concentrations that inhibited cell proliferation, result in words
Protocol: After 1 hour cells were lysed and G6PDH activity was assayed as described below. In other experiments, G6PDH activity was measured in cell lysates prepared from untreated confluent cultures and treated in vitro with DHEA or 16α-BrEA added to the reaction mixture in 5 µl DMSO. […] Ribonucleosides or deoxyribonucleosides were dissolved in 0.5 ml of 1 N HCl and added to DMEM. The pH of the medium was adjusted to 7.1 by titration with 1 N NaOH, and medium was then sterilized by passage through a […] filter. Growth was measured by MTT reduction after 24, 48 and 96 hours.
To determine if DHEA or its analogs induced programmed cell death, confluent cultures in 6 well plastic plates were treated with 50 or 250 µM DHEA, 10 or 50 µM 16α-BrEA, or vehicle (25 µl DMSO). After 2 hours cells were washed twice with DPBS and scraped on ice into 1.5 ml microfuge tubes and centrifuged 250 g for 5 minutes at 4°C. The cell pellet was gently resuspended in 30 µl DPBS and lysed by addition of 30 µl lysis buffer (80 mM EDTA, 1.6% [wt/vol] sodium lauryl sarcosinate and 5 mg/ml proteinase K in 200 mM Tris-HCl buffer, pH 8.0). Lysate was incubated at 50°C for 1.5 hours. RNAse A (0.2 mg/ml) was added and the lysate was incubated for another 30 minutes at 37°C. DNA bands were separated along with a DNA ladder standard on a 1% agarose gel at 60 V for 1 hour, intercalated with ethidium bromide, and visualized and photographed under ultraviolet light. Measurement of Glucose-6-Phosphate Dehydrogenase Activity. Cultures were washed three times with cold DPBS on ice, scraped into ice cold buffer (10 mM MgCl2 in 50 mM Tris, pH 8.0) and sonicated on ice. G6PDH activity was then assayed by the method of Jones and Andrews (Jones, J.T., and Andrews, S.G., "Glucose-6-phosphate dehydrogenase activity in somatic and germinal cells of the mouse testis," J. Reproduc. Fertility, 54, 357-362 (1978)) in a reaction mixture containing 50-200 µl cell lysate, 20 µl of 10 mM β-nicotinamide adenine dinucleotide phosphate (NADP) and 20 µl of 10 mM D-glucose-6-phosphate (G6P) in a total volume of 1 ml buffer (10 mM MgCl2 in 50 mM Tris, pH 8.0). The reaction was initiated by addition of G6P. The linear increase in absorbance at 340 nm was monitored at 25°C for 300 seconds. Activity was expressed as units/mg protein, where 1.0 unit will oxidase 1.0 µmole of G6P to 6-phospho-D-gluconate per min in the presence of NADP. Protein was measured using the BCA protein assay (Rockford, IL). Immunoblot Assay for p21^ras and c-fos Proteins. For measurement of p21^ras, cells were washed twice-with cold DPBS and swelled on ice for 15 minutes with 500 µl cold lysis buffer (10 mM HEPES, 1 mM MgCl2, 1 mM EDTA, 1 µM pepstatin, 2 µg/ml aprotinin, and 1 mM phenylmethylsulfonyl fluoride). See Schulz and Nyce (1991), supra. Cells were then scraped into 1.5 ml polypropylene tubes, homogenized and clarified by centrifugation at 3,000 g for 1 minute at 4°C. The postnuclear supernatant was centrifuged 100,000 g for 30 minutes at 4°C. Supernatants were collected and pelleted membranes were resuspended in detergent buffer (1% Triton X-100, 1% sodium deoxycholate, 0.1% SDS, 150 mM NaCl, 1 µM pepstatin, 2 µg/ml aprotinin and 1 mM phenylmethylsulfonyl fluoride in 25 mM Tris, pH 7.4). Aliquots of supernatant and membrane fractions were removed for protein determination using the BCA protein assay. Bromophenol blue and β-mercaptoethanol were added to the remaining sample to a final concentration of 0.002% (wt/vol) and 5% (vol/vol), respectively. Lysates were then boiled for 5 minutes at 100°C and stored at -80°C until immunoblotting was performed.
Activity is expressed as % inhibition of DMSO vehicle-treated controls by 16α-bromoepiandrosterone (BrEA) or dehydroepiandrosterone (DHEA). DMSO alone caused no reduction in G6PDH activity under assay conditions. Each bar represents the mean of at least 3 experiments. Methods are described in the text. […]

T1 sequence (P05370 whole entry): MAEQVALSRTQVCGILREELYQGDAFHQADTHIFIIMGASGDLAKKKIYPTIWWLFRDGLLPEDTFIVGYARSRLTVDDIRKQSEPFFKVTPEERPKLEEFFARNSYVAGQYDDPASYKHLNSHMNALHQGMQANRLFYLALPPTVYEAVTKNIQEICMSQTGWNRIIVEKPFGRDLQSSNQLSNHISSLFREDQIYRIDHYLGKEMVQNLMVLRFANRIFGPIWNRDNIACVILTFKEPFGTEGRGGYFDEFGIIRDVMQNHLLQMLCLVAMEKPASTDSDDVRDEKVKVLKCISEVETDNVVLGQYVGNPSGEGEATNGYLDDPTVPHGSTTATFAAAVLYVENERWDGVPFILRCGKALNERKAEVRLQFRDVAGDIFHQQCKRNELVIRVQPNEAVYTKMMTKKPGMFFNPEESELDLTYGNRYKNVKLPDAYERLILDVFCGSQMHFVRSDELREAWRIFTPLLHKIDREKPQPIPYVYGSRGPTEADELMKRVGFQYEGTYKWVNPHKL

SMILES	G6PDH activity of subsequent cell lysates	inhibition at 25 µM (25 µM, Intact Airway Smooth Muscle monolayers pretreated 1 hour before harvest, read-out: PERCENT INHIBITION OF GLUCOSE 6-PHOSPHATE DEHYDROGENASE ACTIVITY)	inhibition at 50 µM (50 µM, Intact Airway Smooth Muscle monolayers pretreated 1 hour before harvest, read-out: PERCENT INHIBITION OF GLUCOSE 6-PHOSPHATE DEHYDROGENASE ACTIVITY)	inhibition at 100 µM (100 µM, Intact Airway Smooth Muscle monolayers pretreated 1 hour before harvest, read-out: PERCENT INHIBITION OF GLUCOSE 6-PHOSPHATE DEHYDROGENASE ACTIVITY)	inhibition at 250 µM (250 µM, Intact Airway Smooth Muscle monolayers pretreated 1 hour before harvest, read-out: PERCENT INHIBITION OF GLUCOSE 6-PHOSPHATE DEHYDROGENASE ACTIVITY)
C[C@]12CC[C@H](O)C[C@@H]1CC[C@@H]1[C@@H]2CC[C@]2(C)C(=O)[C@H](Br)C[C@@H]12 [16α-BrEA, 16α-bromoepiandrosterone]	not significantly reduced				
C[C@]12CC[C@H](O)CC1=CC[C@@H]1[C@@H]2CC[C@]2(C)C(=O)CC[C@@H]12 [DHEA, dehydroepiandrosterone]	not significantly reduced	0%	0%	6 ± 7%	24 ± 9%
